Source: ChEMBL document CHEMBL3885861, “Open TG-GATES”

Species on record: Rattus norvegicus
Assay: Open TG-GATES - Regimen: Daily Repeat
Format: toxicity, organism-based, Sprague-Dawley
Set-up: regimen Daily Repeat, gender Male, age 6 weeks
Settings: in vivo, po, 15 mg/kg, route gavage, dose level Low; for APTT / Bas / Eos / Fbg / Hb / Ht / Lym / MCHC / MCV / Mono / Neu / PT / Plat / RBC / Ret / WBC: tissue Blood; for KIDNEY_L / KIDNEY_R / KIDNEY_TOTAL: tissue Kidney; for LIVER: tissue Liver; for ALP / ALT / AST / BUN / CRE / Ca / Cl / DBIL / GLC / IP / K / LDH / Na / PL / RALB / TBIL / TC / TG / TP / gamma-GTP: tissue Plasma

In the case of `C1CCC(C(CC2CCCCN2)C2CCCCC2)CC1` (centres undefined) [PERHEXILINE], the TERMINAL_BW (72 h, time 3 day) is reported as 221.1 g, the APTT (72 h, time 3 day) is reported as 22 s and the Bas (72 h, time 3 day) is reported as 0%. It also gave an Eos (72 h, time 3 day) of 0.8%, a Fbg (72 h, time 3 day) of 313.4 mg/dL and a Hb (72 h, time 3 day) of 13.4 g/dL. The Ht (72 h, time 3 day) was 39.5%, the Lym (72 h, time 3 day) was 82.4% and the MCHC (72 h, time 3 day) was 33.7%. It also gave an MCV (72 h, time 3 day) of 62.1 fL, a Mono (72 h, time 3 day) of 1.6% and a Neu (72 h, time 3 day) of 14.2%. For the same compound, the PT (72 h, time 3 day) was 16.6 s, the Plat (72 h, time 3 day) was 127.5 x10_4/uL and the RBC (72 h, time 3 day) was 637.8 x10_4/ul. The Ret (72 h, time 3 day) was 5.8%, the WBC (72 h, time 3 day) was 90.6 x10_2/uL and the KIDNEY_L (72 h, time 3 day) was 1 g. The KIDNEY_R (72 h, time 3 day) was 1 g, the KIDNEY_TOTAL (72 h, time 3 day) was 2 g and the LIVER (72 h, time 3 day) was 10.6 g. The ALP (72 h, time 3 day) was 1691.8 IU/L, the ALT (72 h, time 3 day) was 40.6 IU/L and the AST (72 h, time 3 day) was 69.8 IU/L. For the same compound, the BUN (72 h, time 3 day) was 16.2 mg/dL, the CRE (72 h, time 3 day) was 0.2 mg/dL and the Ca (72 h, time 3 day) was 10.8 mg/dL. For the same compound, the Cl (72 h, time 3 day) was 106.4 meq/L, the DBIL (72 h, time 3 day) was 0 mg/dL and the GLC (72 h, time 3 day) was 186.2 mg/dL. For the same compound, the IP (72 h, time 3 day) was 6.6 mg/dL, the K (72 h, time 3 day) was 4.2 meq/L and the LDH (72 h, time 3 day) was 253.2 IU/L. For the same compound, the Na (72 h, time 3 day) was 142.6 meq/L, the PL (72 h, time 3 day) was 150 mg/dL and the RALB (72 h, time 3 day) was 3.1 g/dL. It also gave a TBIL (72 h, time 3 day) of 0.008 mg/dL, a TC (72 h, time 3 day) of 74 mg/dL and a TG (72 h, time 3 day) of 131 mg/dL. For the same compound, the TP (72 h, time 3 day) was 5.7 g/dL, the gamma-GTP (72 h, time 3 day) was 1 IU/L and the TERMINAL_BW ([…], time 7 day) was 248.3 g. The TERMINAL_BW ([…], time 14 day) was 309.8 g, the TERMINAL_BW ([…], time 28 day) was 362.5 g and the APTT ([…], time 7 day) was 22.8 s. For the same compound, the Bas ([…], time 7 day) was 0%, the Eos ([…], time 7 day) was 1% and the Fbg ([…], time 7 day) was 313.2 mg/dL. The Hb ([…], time 7 day) was 13.6 g/dL, the Ht ([…], time 7 day) was 39.9% and the Lym ([…], time 7 day) was 79.4%. For the same compound, the MCHC ([…], time 7 day) was 34%, the MCV ([…], time 7 day) was 62.5 fL and the Mono ([…], time 7 day) was 2.2%. It also gave a Neu ([…], time 7 day) of 16.6%, a PT ([…], time 7 day) of 16 s and a Plat ([…], time 7 day) of 115.3 x10_4/uL. It also gave an RBC ([…], time 7 day) of 639.4 x10_4/ul, a Ret ([…], time 7 day) of 5.3% and a WBC ([…], time 7 day) of 110.7 x10_2/uL. It also gave an APTT ([…], time 14 day) of 23.1 s, a Bas ([…], time 14 day) of 0% and an Eos ([…], time 14 day) of 0.4%. The Fbg ([…], time 14 day) was 320.2 mg/dL, the Hb ([…], time 14 day) was 14.9 g/dL and the Ht ([…], time 14 day) was 42.6%. It also gave a Lym ([…], time 14 day) of 82.8%, an MCHC ([…], time 14 day) of 35% and an MCV ([…], time 14 day) of 60.8 fL. It also gave a Mono ([…], time 14 day) of 1.6%, a Neu ([…], time 14 day) of 13.8% and a PT ([…], time 14 day) of 16.1 s. It also gave a Plat ([…], time 14 day) of 112 x10_4/uL, an RBC ([…], time 14 day) of 702.2 x10_4/ul and a Ret ([…], time 14 day) of 3.7%. For the same compound, the WBC ([…], time 14 day) was 125.7 x10_2/uL, the APTT ([…], time 28 day) was 22.8 s and the Bas ([…], time 28 day) was 0%. The Eos ([…], time 28 day) was 1%, the Fbg ([…], time 28 day) was 313.2 mg/dL and the Hb ([…], time 28 day) was 13.6 g/dL. For the same compound, the Ht ([…], time 28 day) was 39.9%, the Lym ([…], time 28 day) was 79.4% and the MCHC ([…], time 28 day) was 34%. For the same compound, the MCV ([…], time 28 day) was 62.5 fL, the Mono ([…], time 28 day) was 2.2% and the Neu ([…], time 28 day) was 16.6%. It also gave a PT ([…], time 28 day) of 16 s, a Plat ([…], time 28 day) of 115.3 x10_4/uL and an RBC ([…], time 28 day) of 639.4 x10_4/ul. The Ret ([…], time 28 day) was 5.3%, the WBC ([…], time 28 day) was 110.7 x10_2/uL and the KIDNEY_L ([…], time 7 day) was 1.1 g. The KIDNEY_R ([…], time 7 day) was 1.1 g, the KIDNEY_TOTAL ([…], time 7 day) was 2.1 g and the KIDNEY_L ([…], time 14 day) was 1.2 g. For the same compound, the KIDNEY_R ([…], time 14 day) was 1.2 g, the KIDNEY_TOTAL ([…], time 14 day) was 2.4 g and the KIDNEY_L ([…], time 28 day) was 1.3 g. It also gave a KIDNEY_R ([…], time 28 day) of 1.3 g, a KIDNEY_TOTAL ([…], time 28 day) of 2.6 g and an LIVER ([…], time 7 day) of 12 g. It also gave an LIVER ([…], time 14 day) of 13 g, an LIVER ([…], time 28 day) of 14.5 g and an ALP ([…], time 7 day) of 1491.4 IU/L. For the same compound, the ALT ([…], time 7 day) was 41 IU/L, the AST ([…], time 7 day) was 70.8 IU/L and the BUN ([…], time 7 day) was 17 mg/dL. It also gave a CRE ([…], time 7 day) of 0.2 mg/dL, a Ca ([…], time 7 day) of 10.3 mg/dL and a Cl ([…], time 7 day) of 106.8 meq/L. For the same compound, the DBIL ([…], time 7 day) was 0 mg/dL, the GLC ([…], time 7 day) was 199.8 mg/dL and the IP ([…], time 7 day) was 7.2 mg/dL. It also gave a K ([…], time 7 day) of 4.2 meq/L, an LDH ([…], time 7 day) of 213.8 IU/L and a Na ([…], time 7 day) of 143.6 meq/L. For the same compound, the PL ([…], time 7 day) was 157.8 mg/dL, the RALB ([…], time 7 day) was 3 g/dL and the TBIL ([…], time 7 day) was 0.004 mg/dL. The TC ([…], time 7 day) was 75 mg/dL, the TG ([…], time 7 day) was 162.4 mg/dL and the TP ([…], time 7 day) was 5.7 g/dL. For the same compound, the gamma-GTP ([…], time 7 day) was 1.6 IU/L, the ALP ([…], time 14 day) was 1618.8 IU/L and the ALT ([…], time 14 day) was 41.2 IU/L. For the same compound, the AST ([…], time 14 day) was 73.8 IU/L, the BUN ([…], time 14 day) was 18.6 mg/dL and the CRE ([…], time 14 day) was 0.2 mg/dL. For the same compound, the Ca ([…], time 14 day) was 10.5 mg/dL, the Cl ([…], time 14 day) was 107 meq/L and the DBIL ([…], time 14 day) was 0 mg/dL. It also gave a GLC ([…], time 14 day) of 191.8 mg/dL, an IP ([…], time 14 day) of 6.1 mg/dL and a K ([…], time 14 day) of 4.1 meq/L. The LDH ([…], time 14 day) was 207.4 IU/L, the Na ([…], time 14 day) was 143.8 meq/L and the PL ([…], time 14 day) was 145.4 mg/dL. For the same compound, the RALB ([…], time 14 day) was 3.2 g/dL, the TBIL ([…], time 14 day) was 0.004 mg/dL and the TC ([…], time 14 day) was 65.4 mg/dL. It also gave a TG ([…], time 14 day) of 177.2 mg/dL, a TP ([…], time 14 day) of 6 g/dL and a gamma-GTP ([…], time 14 day) of 1.6 IU/L. The ALP ([…], time 28 day) was 1153.2 IU/L, the ALT ([…], time 28 day) was 39.4 IU/L and the AST ([…], time 28 day) was 63.6 IU/L. It also gave a BUN ([…], time 28 day) of 18.2 mg/dL, a CRE ([…], time 28 day) of 0.2 mg/dL and a Ca ([…], time 28 day) of 10.3 mg/dL. For the same compound, the Cl ([…], time 28 day) was 108 meq/L, the DBIL ([…], time 28 day) was 0.002 mg/dL and the GLC ([…], time 28 day) was 191 mg/dL. It also gave an IP ([…], time 28 day) of 6.4 mg/dL, a K ([…], time 28 day) of 4 meq/L and an LDH ([…], time 28 day) of 156 IU/L. It also gave a Na ([…], time 28 day) of 144.4 meq/L, a PL ([…], time 28 day) of 138.6 mg/dL and an RALB ([…], time 28 day) of 3.2 g/dL. The TBIL ([…], time 28 day) was 0.012 mg/dL, the TC ([…], time 28 day) was 63.2 mg/dL and the TG ([…], time 28 day) was 130.2 mg/dL. It also gave a TP ([…], time 28 day) of 6.2 g/dL and a gamma-GTP ([…], time 28 day) of 1.2 IU/L.
